Values after ≈ are worked out from the molar mass of the structure shown.
Legend:
Escherichia coli [1] = experiment: Antimicrobial activity against Escherichia coli TUM4670 by broth dilution method; format: functional
Proteus mirabilis [2] = experiment: Antimicrobial activity against Proteus mirabilis TUM4660 by broth dilution method; format: functional
Escherichia coli [3] = experiment: Antimicrobial activity against Escherichia coli ML4909 by broth dilution method; format: functional
Escherichia coli [4] = experiment: Antimicrobial activity against Escherichia coli TUM4672 by broth dilution method
Escherichia coli [5] = experiment: Antimicrobial activity against Escherichia coli ML4901 by broth dilution method in presence of beta-lactamase inhibitor clavulanic acid; format: functional
Escherichia coli [6] = experiment: Antimicrobial activity against Escherichia coli TUM4672 by broth dilution method in presence of beta-lactamase inhibitor clavulanic acid
Escherichia coli [7] = experiment: Antimicrobial activity against Escherichia coli ML4909 by broth dilution method in presence of beta-lactamase inhibitor clavulanic acid; format: functional
Escherichia coli [8] = experiment: Antimicrobial activity against Escherichia coli ML4901 by broth dilution method; format: functional
Proteus mirabilis [9] = experiment: Antimicrobial activity against Proteus mirabilis TUM4660 by broth dilution method in presence of beta-lactamase inhibitor clavulanic acid; format: functional
Escherichia coli [10] = experiment: Antimicrobial activity against Escherichia coli TUM4670 by broth dilution method in presence of beta-lactamase inhibitor clavulanic acid
Proteus mirabilis [11] = experiment: Antimicrobial activity against Proteus mirabilis TUM4660 by disk diffusion method in presence of 300 ug 3-aminophenyl-boronic acid; format: functional
Escherichia coli [12] = experiment: Antimicrobial activity against Escherichia coli TUM4672 by broth dilution method in presence of beta-lactamase inhibitor Tazobactam; format: functional
Escherichia coli [13] = experiment: Antimicrobial activity against Escherichia coli ML4901 by broth dilution method in presence of beta-lactamase inhibitor Tazobactam; format: functional
Escherichia coli [14] = experiment: Antimicrobial activity against Escherichia coli ML4909 by broth dilution method in presence of beta-lactamase inhibitor Tazobactam; format: functional
Escherichia coli [15] = experiment: Antimicrobial activity against Escherichia coli TUM4670 by broth dilution method in presence of beta-lactamase inhibitor Tazobactam; format: functional
Proteus mirabilis [16] = experiment: Antimicrobial activity against Proteus mirabilis TUM4660 by broth dilution method in presence of beta-lactamase inhibitor Tazobactam; format: functional

Compound	MIC (Escherichia coli [1])	MIC (Proteus mirabilis [2])	MIC (Escherichia coli [3])	MIC (Escherichia coli [4])	MIC (Escherichia coli [5])	MIC (Escherichia coli [6])	MIC (Escherichia coli [7])	MIC (Escherichia coli [8])	MIC (Proteus mirabilis [9])	MIC (Escherichia coli [10])	diameter of the inhibition zone (DIZ) (Proteus mirabilis [11])	MIC (Escherichia coli [12])	MIC (Escherichia coli [13])	MIC (Escherichia coli [14])	MIC (Escherichia coli [15])	MIC (Proteus mirabilis [16])
CO/N=C(\C(=O)N[C@@H]1C(=O)N2C(C(=O)[O-])=C(C[N+]3(C)CCCC3)CS[C@H]12)c1csc(N)n1	1 µg/mL (≈ 2.08 µM)	2 µg/mL (≈ 4.16 µM)	≤ 0.06 µg/mL	2 µg/mL (≈ 4.16 µM)												
CC1(C)S[C@@H]2[C@H](NC(=O)[C@H](N)c3ccc(O)cc3)C(=O)N2[C@H]1C(=O)O [AMOXICILLIN]	> 128 µg/mL	> 128 µg/mL	2 µg/mL (≈ 5.47 µM)	> 128 µg/mL	4 µg/mL	> 128 µg/mL	2 µg/mL	4 µg/mL (≈ 10.9 µM)	> 128 µg/mL	> 128 µg/mL						
CO/N=C(\C(=O)N[C@@H]1C(=O)N2C(C(=O)O)=C(COC(C)=O)CS[C@H]12)c1csc(N)n1 [CEFOTAXIME]	16 µg/mL (≈ 35.1 µM)	8 µg/mL (≈ 17.6 µM)	≤ 0.06 µg/mL	32 µg/mL (≈ 70.3 µM)	≤ 0.06 µg/mL	64 µg/mL	≤ 0.06 µg/mL	≤ 0.06 µg/mL	16 µg/mL	32 µg/mL						
CO[C@@]1(NC(=O)Cc2cccs2)C(=O)N2C(C(=O)O)=C(COC(N)=O)CS[C@@H]21 [CEFOXITIN]	128 µg/mL (≈ 299 µM)	128 µg/mL (≈ 299 µM)	4 µg/mL (≈ 9.36 µM)	> 128 µg/mL				2 µg/mL (≈ 4.68 µM)								
CC(C)(O/N=C(\C(=O)N[C@@H]1C(=O)N2C(C(=O)[O-])=C(C[n+]3ccccc3)CS[C@H]12)c1csc(N)n1)C(=O)O [CEFTAZIDIME]	128 µg/mL (≈ 234 µM)	16 µg/mL (≈ 29.3 µM)	0.25 µg/mL (≈ 0.457 µM)	128 µg/mL (≈ 234 µM)	≤ 0.06 µg/mL	64 µg/mL	0.12 µg/mL	0.25 µg/mL (≈ 0.457 µM)	16 µg/mL	32 µg/mL	>5 mm					
O=C(O)c1cn(C2CC2)c2cc(N3CCNCC3)c(F)cc2c1=O [CIPROFLOXACIN]	≤ 0.06 µg/mL	0.12 µg/mL (≈ 0.362 µM)	≤ 0.06 µg/mL	≤ 0.06 µg/mL				≤ 0.06 µg/mL								
C[C@@H](O)[C@H]1C(=O)N2C(C(=O)O)=C(SCCNC=N)C[C@H]12 [IMIPENEM ANHYDROUS]	0.25 µg/mL (≈ 0.835 µM)	8 µg/mL (≈ 26.7 µM)		0.25 µg/mL (≈ 0.835 µM)												
CCN1CCN(C(=O)N[C@@H](C(=O)N[C@@H]2C(=O)N3[C@@H]2SC(C)(C)[C@@H]3C(=O)O)c2ccccc2)C(=O)C1=O [PIPERACILLIN]	> 128 µg/mL	> 128 µg/mL	2 µg/mL (≈ 3.86 µM)	> 128 µg/mL				2 µg/mL (≈ 3.86 µM)				> 128 µg/mL	2 µg/mL	2 µg/mL	> 128 µg/mL	16 µg/mL
COc1cc(Cc2cnc(N)nc2N)cc(OC)c1OC [TRIMETHOPRIM]	≤ 0.06 µg/mL	4 µg/mL (≈ 13.8 µM)	0.12 µg/mL (≈ 0.413 µM)	≤ 0.06 µg/mL				≤ 0.06 µg/mL								
GENTAMICIN	1 µg/mL	1 µg/mL	2 µg/mL					2 µg/mL								

From ChEMBL document CHEMBL1649318, “Chromosomally encoded blaCMY-2 located on a novel SXT/R391-related integrating conjugative element in a Proteus mirabilis clinical isolate” (2010)
